The subject of series [1] is MES-induced seizures in mice. The series is described as follows: Maximal electroshock seizure (MES) test. The note with it: for responders at 100 mg/kg / ED50: Mus musculus, ip; for responders at 100 mg/kg / protection in MES screening: 100 mg/kg i.p., 0.5 h; for responders at 100 mg/kg: read-out: MES screening: number of mice protected/number of mice tested (converted); for protection in MES screening: four mice; for ED50: mice, pretreatment time 0.5 h, (95% confidence limits). It counts as in vivo. As for the experimental part:
(§1) Adult male Albino Swiss mice that weighed between 22 and 26 g were used in the in vivo studies. They were housed under standardized housing conditions in colony cages and had free access to food as well as tap water. The animals were left to adapt under laboratory conditions for 7 days. All procedures involving animals and their care were performed in accordance with the current European Community and Polish legislation on animal experimentation.
(§2) In the initial screening studies, four mice per group were randomly assigned to each experimental group (each mouse was used only once). To evaluate the ED50 or TD50 values, 3–4 groups that consisted of eight animals were injected with various doses of tested compounds. The protective indexes (PIs) for the compounds that were investigated and reference ASDs were calculated by dividing the TD50 value, as determined in the chimney test (or rotarod test), by the respective ED50 value, as determined in the MES, scPTZ, or 6 Hz (32 mA or 44 mA) tests (PI = TD50/ED50). The PIs is a measure of the potential therapeutic window of the tested agent.
(§3) All substances were suspended in Tween 80 (1% aqueous solution) and administered i.p. as a single injection at a dose of 10 mL/kg. On each day of experimentation, fresh solutions were prepared. The results are summarized in Table S1 (screening data) and Table 2 (ED50, TD50, and PI values, see Section 3 Results and Discussion).
(§4) The detailed in vivo procedures are described elsewhere: the maximal electroshock seizure test (MES), the subcutaneous pentylenetetrazole seizure test (scPTZ), the 6 Hz psychomotor seizure model (32 mA and 44 mA), and the chimney test.
(§5) The basic animal seizure models such as the MES, 6 Hz (32 mA or 44 mA), and the scPTZ are still a standard in the discovery and development of new ASDs. In vivo screening approaches enable the identification of compounds with unidentified and potentially novel mechanisms of action besides substances with well-established pharmacodynamics. Bearing in mind the aforementioned facts, compounds 45–66 were initially studied in the MES test and in the 6 Hz seizure model (32 mA) after intraperitoneal (i.p.) administration at a screening dose of 100 mg/kg in mice at a time point of 0.5 h (the screening group consisted of four mice, the results obtained are summarized in Table S1). It should be stressed that the MES test is an experimental model of human tonic–clonic epilepsy as well as partial convulsions with or without secondary generalization, the 6 Hz model (32 mA) corresponds to human focal epilepsy, whereas the scPTZ test relates to human generalized absence or myoclonic seizures.
(§6) We also established the median toxic doses (TD50) in the chimney test 0.5 h post i.p. administration of these compounds. Both the aforementioned parameters enabled the calculation of the protective indexes (PIs).
(In general: The maximal electroshock test induces tonic seizures with an electrical stimulus.)

The test system of series [2] is 6 Hz (32 mA) seizures in mice. Nature of the series: 6 Hz (32 mA) psychomotor seizure model. The following applies: Mus musculus, ip; for responders at 100 mg/kg: 100 mg/kg i.p., 0.5 h; for ED50: mice, pretreatment time 0.5 h, (95% confidence limits). The class given is in vivo. As for the experimental part:
as §1, §2, §3, §4, §5, §6

A further series addresses T1, TRPV1 (VR1) (h) (Homo sapiens, UniProt Q8NER1).
T1 construct: host or cells: CHO
The series is described as follows: TRPV1 (VR1) (h) antagonist effect functional assay. It counts as cell-based. The note with it: human recombinant CHO cells, read-out: % Inhibition of control agonist response, TRPV1 (antagonist effect). As for the experimental part:
Binding/functional studies were carried out commercially in Eurofins Laboratories (Poitiers, France) and Eurofins Panlabs Discovery Services Taiwan, Ltd. (New Taipei City, Taiwan) using testing procedures that were reported previously (for details see Table S2).
Table S2. Radioligand binding and functional assays. […]
Assays were performed commercially in Eurofins Laboratories (Poitiers, France) or Eurofins Panlabs Discovery Services Taiwan, Ltd. (New Taipei City, Taiwan).
Table S3. In vitro TRPV1 channel antagonist activity for compounds 45–66 (concentration of 100 µM). […]
Cmpd % Inhibition of control Cmpd % Inhibition of control agonist responsea agonist responsea
*Source: human recombinant CHO cells. a Results showing activity higher than 50% are considered to represent […]
variability of the sign al around the control level. Assays were performed commercially in Eurofins Laboratories

For series [3], the system named is scPTZ-induced seizures in mice. The series is described as follows: Subcutaneous pentylenetetrazole (scPTZ) seizure test. It counts as in vivo. The note with it: 100 mg/kg i.p., 0.5 h. Here is the method:
as §1, §2, §3, §4, §5

[4] abbreviates: read-out: 6 Hz (32 mA) screening: number of mice protected/number of mice tested (converted).
Setting [5] is: four mice, read-out: protection in 6 Hz (32 mA) screening.

Where two headings read alike, the source gives them in different places.

The record followed here is publication PMC9221546, “New Phenylglycinamide Derivatives with Hybrid Structure as Candidates for New Broad-Spectrum Anticonvulsants” (Cells, 2022).

For orientation: inhibition means the change of the read-out against control, counted positive when it falls. The ED50 is the dose at which the effect has come halfway, by size or by number of responders. By melting point is commonly meant the temperature, or range, at which the solid turns liquid.

T1 sequence (Q8NER1 whole entry): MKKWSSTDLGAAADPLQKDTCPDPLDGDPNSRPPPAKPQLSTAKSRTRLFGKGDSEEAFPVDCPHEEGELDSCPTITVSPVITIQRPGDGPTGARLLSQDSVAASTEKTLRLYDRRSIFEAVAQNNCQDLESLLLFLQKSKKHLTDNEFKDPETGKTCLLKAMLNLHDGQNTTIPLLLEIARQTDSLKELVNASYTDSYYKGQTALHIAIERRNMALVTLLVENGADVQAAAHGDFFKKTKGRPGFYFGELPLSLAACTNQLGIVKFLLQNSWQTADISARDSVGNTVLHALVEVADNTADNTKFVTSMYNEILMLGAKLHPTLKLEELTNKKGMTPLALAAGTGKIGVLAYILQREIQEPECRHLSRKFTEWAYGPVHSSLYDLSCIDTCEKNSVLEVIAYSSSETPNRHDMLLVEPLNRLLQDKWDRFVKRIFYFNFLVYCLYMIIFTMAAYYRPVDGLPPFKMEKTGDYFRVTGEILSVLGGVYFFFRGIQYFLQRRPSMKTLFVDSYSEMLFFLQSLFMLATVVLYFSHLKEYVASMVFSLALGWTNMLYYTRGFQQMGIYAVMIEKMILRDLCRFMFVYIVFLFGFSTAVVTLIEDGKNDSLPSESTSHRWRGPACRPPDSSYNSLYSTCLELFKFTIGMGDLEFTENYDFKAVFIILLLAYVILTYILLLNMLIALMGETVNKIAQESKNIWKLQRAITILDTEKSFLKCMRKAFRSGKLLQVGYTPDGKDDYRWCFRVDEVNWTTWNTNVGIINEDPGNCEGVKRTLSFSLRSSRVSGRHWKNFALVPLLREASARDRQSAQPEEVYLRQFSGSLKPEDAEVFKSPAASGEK

In the case of `CC(=O)NC(C(=O)N1CCN(c2ccc(Cl)c(Cl)c2)CC1)c1ccccc1` (stereo not shown) [Compound 49, N-(2-(4-(3,4-dichlorophenyl)piperazin-1-yl)-2-oxo-1-phenylethyl)acetamide], the responders at 100 mg/kg in series [1] is 0%; in series [2] (setting [4]), 25%. For the same compound, the inhibition at 100 µM on TRPV1 (VR1) (h) is 135%.
`CC(=O)NC(C(=O)N1CCN(c2ccc(Cl)cc2)CC1)c1ccccc1` (stereo not shown) [Compound 48, N-(2-(4-(4-chlorophenyl)piperazin-1-yl)-2-oxo-1-phenylethyl)acetamide]: the melting point fell in the range of 133.3 to 134.6 °C. In addition, in series [1], the “protection in MES screening” value is 25%, the responders at 100 mg/kg is 25% and the ED50 is over 150 mg/kg. Besides, in series [2] (setting [5]), the responders at 100 mg/kg is 75%. The responders at 100 mg/kg in series [2] (setting [4]) was 75%. In addition, the ED50 in series [2] stood at 60.1 mg/kg. In addition, the inhibition at 100 µM on TRPV1 (VR1) (h) was 127%.
With `CC(=O)NC(C(=O)N1CCN(c2cccc(C(F)F)c2)CC1)c1ccccc1` (stereo not shown) [Compound 57, N-(2-(4-(3-(difluoromethyl)phenyl)piperazin-1-yl)-2-oxo-1-phenylethyl)acetamide], the responders at 100 mg/kg in series [1] is 0%; in series [2] (setting [4]), 25%. Besides, the inhibition at 100 µM at TRPV1 (VR1) (h) came to 43.7%.
As to `COc1cccc(N2CCN(C(=O)C(NC(C)=O)c3ccccc3)CC2)c1` (stereo not shown) [Compound 59, N-(2-(4-(3-methoxyphenyl)piperazin-1-yl)-2-oxo-1-phenylethyl)acetamide], in series [1], the responders at 100 mg/kg is 0%. For the same compound, the inhibition at 100 µM on TRPV1 (VR1) (h) was 20.1%.
As for `CC(=O)NC(C(=O)N1CCN(c2cccc(Oc3ccccc3)c2)CC1)c1ccccc1` (stereo not shown) [Compound 61, N-(2-oxo-2-(4-(3-phenoxyphenyl)piperazin-1-yl)-1-phenylethyl)acetamide], the responders at 100 mg/kg in series [1] is 0%; in series [2] (setting [4]), 25%. Besides, the inhibition at 100 µM on TRPV1 (VR1) (h) was found to be 52.5%.
As to `CC(=O)NC(C(=O)N1CCN(c2ccc(C(F)(F)F)cn2)CC1)c1ccccc1` (stereo not shown) [Compound 65, N-(2-oxo-1-phenyl-2-(4-(5-(trifluoromethyl)pyridine-2-yl)piperazin-1-yl)ethyl)acetamide], the melting point was 91.2 to 92.4 °C. In series [1], the “protection in MES screening” value amounted to 75%, the responders at 100 mg/kg was 75% and the ED50 is over 100 mg/kg. Moreover, the responders at 100 mg/kg in series [2] (setting [5]) amounted to 75%. Moreover, in series [2] (setting [4]), the responders at 100 mg/kg is 75%. Besides, the ED50 in series [2] stood at 64.9 mg/kg. In addition, in series [3], the “scPTZ screening: number of mice protected/number of mice tested” value is reported as 0/4. The inhibition at 100 µM at TRPV1 (VR1) (h) amounted to 8.5%.
With `CC(=O)NC(C(=O)N1CCN(c2ccc(C(F)(F)F)cc2)CC1)c1ccccc1` (stereo not shown) [Compound 54, N-(2-oxo-1-phenyl-2-(4-(4-(trifluoromethyl)phenyl)piperazin-1-yl)ethyl)acetamide], the responders at 100 mg/kg in series [1] is 0%; in series [2] (setting [5]), 50%; in series [2] (setting [4]) it was 50%. Besides, on TRPV1 (VR1) (h), the inhibition at 100 µM is 128%.
As for `CC(=O)NC(C(=O)N1CCN(c2cccc(C)c2)CC1)c1ccccc1` (stereo not shown) [Compound 56, N-(2-oxo-1-phenyl-2-(4-(m-tolyl)piperazin-1-yl)ethyl)acetamide], the responders at 100 mg/kg in series [1] was 0%; in series [2] (setting [4]), 25%. Also, at TRPV1 (VR1) (h), the inhibition at 100 µM was determined as 57.4%.
`CC(=O)NC(C(=O)N1CCN(c2ccccc2Cl)CC1)c1ccccc1` (stereo not shown) [Compound 46, N-(2-(4-(2-chlorophenyl)piperazin-1-yl)-2-oxo-1-phenylethyl)acetamide]: the responders at 100 mg/kg is 0% in series [1], 50% in series [2] (setting [5]) and 50% in series [2] (setting [4]). Further, the inhibition at 100 µM on TRPV1 (VR1) (h) was 116%.
Take `CC(=O)NC(C(=O)N1CCN(c2cc(Cl)cc(C(F)(F)F)c2)CC1)c1ccccc1` (stereo not shown) [Compound 51, N-(2-(4-(3-chloro-5-(trifluoromethyl)phenyl)piperazin-1-yl)-2-oxo-1-phenylethyl) acetamide]: the responders at 100 mg/kg in series [1] was 0%; in series [2] (setting [4]), 25%. Besides, on TRPV1 (VR1) (h), the inhibition at 100 µM was -2.5%.
Take `CC(=O)NC(C(=O)N1CCN(c2cc(Cl)cc(Cl)c2)CC1)c1ccccc1` (stereo not shown) [Compound 50, N-(2-(4-(3,5-dichlorophenyl)piperazin-1-yl)-2-oxo-1-phenylethyl)acetamide]: the melting point was in the range of 185.9 to 187.3 °C. Further, in series [1], the responders at 100 mg/kg is 0%. Also, the responders at 100 mg/kg in series [2] (setting [4]) is 25%. For the same compound, the inhibition at 100 µM at TRPV1 (VR1) (h) worked out at 128%.
Compound `CC(=O)NC(C(=O)N1CCN(c2ncccc2C(F)(F)F)CC1)c1ccccc1` (stereo not shown) [Compound 63, N-(2-oxo-1-phenyl-2-(4-(3-(trifluoromethyl)pyridine-2-yl)piperazin-1-yl)ethyl)acetamide] displayed a melting point of 147.8 to 148.9 °C. Further, the responders at 100 mg/kg in series [1] was 0%. In addition, at TRPV1 (VR1) (h), the inhibition at 100 µM was -2.8%.
The compound `CC(=O)NC(C(=O)N1CCN(c2cc(C(F)(F)F)ccn2)CC1)c1ccccc1` (stereo not shown) [Compound 64, N-(2-oxo-1-phenyl-2-(4-(4-(trifluoromethyl)pyridine-2-yl)piperazin-1-yl)ethyl)acetamide] displayed a melting point of 91.4 to 92.3 °C. In series [1], the responders at 100 mg/kg is 0%. Also, the responders at 100 mg/kg in series [2] (setting [4]) is 25%. Besides, on TRPV1 (VR1) (h), the inhibition at 100 µM worked out at 39.7%.
As for `CC(=O)NC(C(=O)N1CCN(c2ccccc2C(F)(F)F)CC1)c1ccccc1` (stereo not shown) [Compound 52, N-(2-oxo-1-phenyl-2-(4-(2-(trifluoromethyl)phenyl)piperazin-1-yl)ethyl)acetamide], the responders at 100 mg/kg in series [1] is 0%; in series [2] (setting [5]) it was 50%; in series [2] (setting [4]), 50%. Besides, the inhibition at 100 µM at TRPV1 (VR1) (h) was determined as 90.9%.
Consider `CC(=O)NC(C(=O)N1CCN(c2cccc(-c3ccccc3)c2)CC1)c1ccccc1` (stereo not shown) [Compound 58, N-(2-(4-([1,1’-biphenyl]-3-yl)piperazin-1-yl)-2-oxo-1-phenylethyl)acetamide], for which the responders at 100 mg/kg in series [1] is 0%; in series [2] (setting [5]), 50%; in series [2] (setting [4]) it was 50%. The inhibition at 100 µM on TRPV1 (VR1) (h) worked out at 92%.
For the compound `CC(=O)NC(C(=O)N1CCN(c2cc(C(F)(F)F)cc(C(F)(F)F)c2)CC1)c1ccccc1` (stereo not shown) [Compound 55, N-(2-(4-(3,5-bis(trifluoromethyl)phenyl)piperazin-1-yl)-2-oxo-1-phenylethyl)acetamide], the melting point lay within 194.2 to 195.4 °C. In addition, the responders at 100 mg/kg in series [1] was 0%. Further, in series [2] (setting [4]), the responders at 100 mg/kg was 25%. At TRPV1 (VR1) (h), the inhibition at 100 µM is -14%.
Turning to `CC(=O)NC(C(=O)N1CCN(c2cccc(C(F)(F)F)n2)CC1)c1ccccc1` (stereo not shown) [Compound 66, N-(2-oxo-1-phenyl-2-(4-(6-(trifluoromethyl)pyridine-2-yl)piperazin-1-yl)ethyl)acetamide], the melting point lay within 151.6 to 152.3 °C. In addition, the responders at 100 mg/kg in series [1] is 0%. In addition, in series [2] (setting [5]), the responders at 100 mg/kg was 50%. In addition, in series [2] (setting [4]), the responders at 100 mg/kg is 50%. At TRPV1 (VR1) (h), the inhibition at 100 µM stood at 3.7%.
